Assay results from patent US11351134B2, “Small molecule agents, compositions, and formulations, for internal use, displaying inhibitory activity against gram-positive and/or gram-negative organisms” (NATUREZA, INC., priority 2017, dated 2022).

Test system: representative Gram-positive pathogens and yeast
Assay: Broth microdilution of lecithin/chitosan compositions, sonicated and/or filtered
Assay type: cell-based
Conditions: composition with lecithin and chitosan
From the text: In a further preparation, lauric acid derivative, 12-aminododecanoic acid or 12-amino-1-dodecanoic acid methyl ester, was suspended individually (and independently) in an organic solvent, chloroform, and mixed with water, generally under agitated conditions. Here, for each sample, the amount of water to the amount of chloroform was at least 2:1, and was as high as 10:1. This was followed by chloroform evaporation, generally under vacuum using a freeze dryer. After removal of the chloroform, a lecithin solution was added to each sample. The lecithin was in a solution of acetic acid (e.g., 98 mM acetic acid and 2 mM sodium acetate), in which the amount of lecithin in solution was between about 1% to 5%. With addition of lecithin, each sample mixture contained up to about 4.8% lecithin (or generally about 5% or less), and up to about 7.8% of one of the lauric acid derivatives (or generally about 8% or less). pH of the solution was neutral. It is noted that the lecithin should be in a suitable form (e.g., solution or granules) acceptable for internal utilization (e.g., pharmaceutical grade). The lecithin may also include cholesterol, or other lecithin variants as described above, with similar results. Chitosan was then added to each of the samples, and each sample was then independently sonicated, followed by independent sterilization by high pressure filtration. […]

In the case of `COC(=O)CCCCCCCCCCCN.Cl` [12-amino-1-dodecanoic acid methyl ester HCl], the “Growth inhibitory activity against representative Gram-positive pathogens and yeast” value is reported as “exhibited growth inhibitory activity”.
